Experimental data: patent US20010041670A1, “Thrombospondin-binding region of histidine-rich glycoprotein and method of use” (priority 1999, published 2001)

Key:
[1] = test system: C57B1/6 mice; assay: In vivo subcutaneous Matrigel plug assay
Description: In vivo subcutaneous Matrigel plug assays were performed as described (23). Briefly, 500 μl of Matrigel mixed with proteins or growth factors was injected subcutaneously near the abdominal midline of C57B1/6 mice. Gels were removed after 10 days, fixed in 1% paraformaldehyde, embedded in paraffin, sectioned, and stained with hematoxylin and eosin. Immunohistochemistry was performed on unstained sections using an anti-human von Willebrand factor (vWF) IgG (Dako, Glostrup, Denmark) or isotype-matched control (Sigma) and a biotin-streptavidin-peroxidase antibody and development system (Vector Laboratories, Burlingame, Calif.) as described (24) and counterstained with Mayer's hematoxylin (ImmunoGenex, San Ramon, Calif., USA). After scanning, the degree of angiogenesis was determined by counts of vWF-positive blood vessels using Scion Image. For breast tissue, frozen sections of freshly obtained human breast carcinoma were incubated with rabbit antibody to HRGP or CSVTCG or murine monoclonal antibody to TSP, or isotype-matched controls (Sigma), and developed as above. These studies were approved by the Institutional Animal Use Committee.
Matrigel mixed was injected subcutaneously into the midline of mice and resulting plugs were harvested after 10 days, fixed, and paraffin embedded, sectioned, stained with. hematoxylin and eosin, and photographed at 200× magnification. […]

[2] = test system: Human dermal microvascular EC (HMVEC); assay: Tube formation assay on Matrigel; assay type: cell-based; settings: Matrigel
Description: Tube Formation Assay. Early passage (P2 or P3) HMVEC in 0.2% MVGS were grown on 150 μl of Matrigel (Becton Dickinson, Bedford, Mass., USA) at 3×10^4 cells per well of 48-well plates. Reagents were added and cells were incubated at 5% CO2, 37° C. for 24 hours then photographed. Images were scanned and number of branched structures was counted using Scion Image software (Frederick, Md., USA).
HRGP inhibits the anti-angiogenic effect of TSP-1 in vitro. Microvascular EC were grown on Matrigel under low serum concentrations (0.2%) in the presence of bFGF (2 ng/ml), conditions which are known to induce tube formation. […] The anti-angiogenic activity of TSP-1 was abolished by the addition of HRGP (15 nM), which restored the ability of the EC to form tubular structures. (c).

[3] = test system: Human dermal microvascular EC (HMVEC); assay: Endothelial cell chemotaxis assay (modified Boyden chamber); assay type: cell-based; settings: TSP-1 2 nM; 3 separate experiments
Description: Endothelial Cell (EC) chemotaxis assays were performed as described using a modified Boyden chamber with 8 μm gelatin-coated membranes (22). Briefly, confluent flasks of HMVEC were grown in 0.1% MVGS overnight and plated at 3×10^4 cells per well on a gelatinized porous membrane (Osmonics, Minnetonka, Minn., USA). Reagents were added to wells and cells were allowed to migrate at 5% CO2, 37° C. for 4 hours. Membranes were stained and the number of cells migrating was counted. Results were expressed as the percentage of maximum cells migrating towards bFGF (38-113 cells/10 high power fields) minus the number of cells migrating in the absence of bFGF (4-13cells/10 hpf).
HRGP inhibits the anti-chemotactic effect of TSP-1. Because the type I repeat also mediates the interaction of TSP-1 with HRGP, we studied the effect of HRGP on angiogenesis. EC migration towards bFGF was measured using a modified Boyden chamber with an 8 μm gelatin-coated membrane in the presence and absence of TSP-1 (2 nM) and increasing concentrations of HRGP (0-100 nM). Data from 3 separate experiments are expressed as a percentage of migration in the presence of bFGF alone. We measured migration of CD36-expressing microvascular EC towards bFGF. The addition of TSP-1 inhibited bFGF-induced migration of EC (approx. 30%±3% of control 100% value without added TSP-1). […]

[4] = test system: CD36 null mice; assay: In vivo corneal angiogenesis assay, CD36 null mice
Description: (§1) FIG. 3. HRGP abrogates the effect of endogenous TSP in the corneal angiogenesis assay. Pellets containing bFGF at various doses with and without HRGP (50 ng) were implanted into the corneas of wild type C57BL/6 (closed symbols) or CD 36 null mice (open symbols), and area of neovascularization was measured after five days. HRGP (--●--) augmented the dose-dependent effect of bFGF (—▪—) in the wild type mice (p=0.0004 by ANOVA). In CD36 null mice, there was an enhanced dose response to bFGF (—□—) (p=0.01), but no effect seen with the addition of HRGP (--◯--). Results represent mean±SE of>6 replicates.
(§2) In vivo corneal angiogenesis assays. Pellets composed of hydron (Hydro Med Sciences, Cranbury, N.J.) and sucralfate (Teva Pharmaceuticals, North Wales, Pa.) were mixed with proteins or growth factors, and were prepared and implanted into the comeas of C57B1/6 mice as described (38). After 5 days, eyes were viewed under a dissecting microscope and photographed with a Sony DKC-1000 digital camera. The area of neovascularization was calculated by measuring vessel length from limbus towards the pellet and number of clock hours of vascularization as described (39, 40). Studies were approved by the Institutional Animal Use Committee.
In fact, the dose response curve of bFGF in wild type mice in the presence of HRGP was similar to that seen with bFGF alone in the CD36 null mice. […]

[5] = target: T1, binding of HRGP to TSP-1 (Homo sapiens, UniProt P04196); assay: ELISA of HRGP binding to immobilized TSP-1 in presence of peptides; settings: for inhibition of binding of HRGP to immobilized TSP-1: peptide 50 μM
T1 construct: from tissue; host or cells: HRGP from human plasma; TSP-1 from human platelet releasate
T1 sequence (P04196 19-525): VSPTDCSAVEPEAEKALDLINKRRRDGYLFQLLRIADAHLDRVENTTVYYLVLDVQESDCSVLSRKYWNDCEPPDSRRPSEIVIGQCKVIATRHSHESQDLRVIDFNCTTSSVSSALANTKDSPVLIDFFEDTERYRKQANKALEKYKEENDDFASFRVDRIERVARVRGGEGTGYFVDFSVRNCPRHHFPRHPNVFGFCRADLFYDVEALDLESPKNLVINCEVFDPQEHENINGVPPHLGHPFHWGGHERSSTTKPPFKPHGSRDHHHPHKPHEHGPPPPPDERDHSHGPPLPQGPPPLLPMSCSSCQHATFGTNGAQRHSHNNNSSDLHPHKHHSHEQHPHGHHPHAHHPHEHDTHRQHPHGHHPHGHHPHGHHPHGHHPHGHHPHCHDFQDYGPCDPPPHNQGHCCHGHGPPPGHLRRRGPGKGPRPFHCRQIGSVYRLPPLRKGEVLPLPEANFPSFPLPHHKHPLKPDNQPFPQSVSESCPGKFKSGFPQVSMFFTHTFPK
Description: (§3) Enzyme-linked immunosorbent assays (ELISA) were performed as described (6). Briefly, TSP-1 (4μg/ml) in coating buffer (0.5M sodium carbonate, pH 9.6) was applied to microtiter plates (Becton Dickinson, Lincoln Park, N.J., USA) for 3 hours at 37° C. After washing with wash buffer (0.05% Tween in 20 mM Tris, 150mM NaCl, pH 7.5), and blocking for 1 hour at 37° C. with 1% BSA in Tris-Tween, HRGP in varying amounts in the presence and absence of peptide was added for 18h at 4° C. After washing, alkaline phosphatase-conjugated anti-HRGP or nonimmune rabbit Fab'2 was added for 3h at 37° C., after which p-nitrophenyl phosphate substrate was added and optical density (OD) at 405 nm was read in a microplate reader (Molecular Devices, Menlo Park, Calif., USA).
(§4) HRGP or plasminogen binding to TSP-1 immobilized on plastic wells was measured by enzyme-linked immunosorbent assay (ELISA) as described above, using an alkaline phosphatase-conjugated anti-HRGP antibody and p-nitrophenyl phosphate substrate.
(§5) As an additional control, the binding of plasminogen to TSP-1 was measured.
Varying amounts of HRGP were added alone or in the presence of increasing concentrations of the peptide CSVTCG to TSP-1 coated wells. Binding was measured by ELISA as described above.

[6] = test system: wild type C57BL/6 mice; assay: In vivo corneal angiogenesis assay, wild type mice
Description: as §1, §2
In a second type of in vivo experiment, hydron/sucralfate pellets containing bFGF, TSP-1, and/or HRGP were implanted in the corneas of C57B1/6 mice. […]

[7] = target: T2, binding of radiolabelled HRGP to TSP-1 (Homo sapiens, UniProt P04196); assay: Ligand blot of radiolabelled HRGP on TSP-1; settings: autoradiography; CSVTCG peptide at 50 μM
T2 construct: TSP-1 was purified from human platelet releasate; from tissue; host or cells: HRGP from human plasma; TSP-1 from human platelet releasate
T2 sequence (P04196 19-525): T1 sequence (P04196 19-525)
Description: Ligand Blot: TSP-1 was resolved on an SDS-polyacrylamide gel and electrophoretically blotted onto a polyvinylidene difluoride (PVDF) membrane. The membrane was blocked with 150 mM NaCl, 20 mM Tris (TBS) containing 5% BSA. Following three washes with TBS, washes the membranes were cut into strips and incubated with ligand(s) diluted in TBS, 0.1% BSA for 1 hour, washed, and developed by autoradiography.
Ligand blots show binding of radiolabelled HRGP to TSP-1 that had been subjected to SDS-PAGE and transferred to nitrocellulose, then developed by autoradiography.

[8] = target: binding of plasminogen to TSP-1 (Homo sapiens, UniProt P00747); settings: ELISA; control interaction
Sequence of binding of plasminogen to TSP-1 (P00747 20-810 limits assumed): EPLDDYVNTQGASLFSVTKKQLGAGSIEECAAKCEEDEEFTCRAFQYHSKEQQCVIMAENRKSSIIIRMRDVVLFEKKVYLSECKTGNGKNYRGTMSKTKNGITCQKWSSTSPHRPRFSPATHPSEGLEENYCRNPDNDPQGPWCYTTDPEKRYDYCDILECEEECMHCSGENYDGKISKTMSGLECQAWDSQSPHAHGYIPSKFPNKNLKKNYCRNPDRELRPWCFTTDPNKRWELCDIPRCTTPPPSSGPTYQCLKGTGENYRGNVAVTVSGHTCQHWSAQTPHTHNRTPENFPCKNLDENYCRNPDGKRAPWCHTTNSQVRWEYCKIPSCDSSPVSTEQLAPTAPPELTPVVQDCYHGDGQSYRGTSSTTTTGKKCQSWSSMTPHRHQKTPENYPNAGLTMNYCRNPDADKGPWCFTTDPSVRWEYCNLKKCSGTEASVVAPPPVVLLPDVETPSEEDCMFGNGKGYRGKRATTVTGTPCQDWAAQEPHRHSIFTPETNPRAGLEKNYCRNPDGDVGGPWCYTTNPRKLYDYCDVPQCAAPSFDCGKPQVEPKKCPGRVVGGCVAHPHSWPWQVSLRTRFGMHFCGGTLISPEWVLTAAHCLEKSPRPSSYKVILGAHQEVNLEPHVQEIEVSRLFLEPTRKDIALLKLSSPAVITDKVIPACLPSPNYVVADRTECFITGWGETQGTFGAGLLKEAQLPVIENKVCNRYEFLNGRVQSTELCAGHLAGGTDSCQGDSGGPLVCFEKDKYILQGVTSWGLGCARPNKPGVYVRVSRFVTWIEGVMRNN
Description: as §3, §4, §5

[9] = target: T3, 125I-TSP-1 binding to HRGP (Homo sapiens, UniProt P07996); assay: Solid phase binding assay, competition with CD36 fusion proteins; settings: increasing concentrations of fusion protein
T3 construct: TSP-1 was purified from human platelet releasate; from tissue; host or cells: TSP-1 from human platelet releasate; HRGP from human plasma
T3 sequence (P07996 19-1170): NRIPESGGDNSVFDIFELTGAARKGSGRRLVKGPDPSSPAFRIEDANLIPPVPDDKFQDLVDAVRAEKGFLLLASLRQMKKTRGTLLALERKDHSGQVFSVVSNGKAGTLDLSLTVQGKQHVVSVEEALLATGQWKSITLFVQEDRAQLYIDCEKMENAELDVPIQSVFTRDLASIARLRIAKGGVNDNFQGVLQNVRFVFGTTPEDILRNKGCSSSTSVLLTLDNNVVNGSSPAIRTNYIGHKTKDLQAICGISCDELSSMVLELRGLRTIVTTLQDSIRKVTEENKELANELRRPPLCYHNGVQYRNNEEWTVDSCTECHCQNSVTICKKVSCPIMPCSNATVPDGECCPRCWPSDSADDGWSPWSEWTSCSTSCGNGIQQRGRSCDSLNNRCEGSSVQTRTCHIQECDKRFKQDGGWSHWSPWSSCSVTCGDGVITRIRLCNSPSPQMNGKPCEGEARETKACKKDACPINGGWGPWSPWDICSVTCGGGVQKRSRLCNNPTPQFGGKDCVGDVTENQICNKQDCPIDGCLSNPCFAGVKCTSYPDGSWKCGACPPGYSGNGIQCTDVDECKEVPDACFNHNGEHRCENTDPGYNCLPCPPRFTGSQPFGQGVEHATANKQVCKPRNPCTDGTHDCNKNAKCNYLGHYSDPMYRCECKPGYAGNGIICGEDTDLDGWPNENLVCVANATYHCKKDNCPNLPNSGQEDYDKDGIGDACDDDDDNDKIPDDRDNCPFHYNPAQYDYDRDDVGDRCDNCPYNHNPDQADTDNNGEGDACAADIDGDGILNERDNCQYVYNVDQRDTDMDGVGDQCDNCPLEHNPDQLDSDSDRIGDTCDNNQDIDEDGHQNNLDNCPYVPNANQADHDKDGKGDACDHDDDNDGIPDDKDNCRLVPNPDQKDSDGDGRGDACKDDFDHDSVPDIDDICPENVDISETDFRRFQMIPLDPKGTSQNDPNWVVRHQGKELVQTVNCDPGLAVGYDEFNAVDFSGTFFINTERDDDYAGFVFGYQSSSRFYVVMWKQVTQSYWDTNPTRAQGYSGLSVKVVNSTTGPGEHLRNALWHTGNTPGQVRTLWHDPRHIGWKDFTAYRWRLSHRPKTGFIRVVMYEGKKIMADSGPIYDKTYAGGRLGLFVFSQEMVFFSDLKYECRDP
Description: Solid phase binding assays were performed as described (18). Briefly, HRGP in carbonate buffer was immobilized on 96-well strips (Immulon-4 Remove-a-well, Dynatech Laboratories Inc., Burlington, Mass., USA) overnight at 4° C. After blocking with 1% BSA, ^125I-TSP-1 was incubated in the presence of varying concentrations of CD36-FP in triplicate, and bound radioactivity was quantified on a gamma counter. Non-specific binding was determined by carrying out binding in the presence of excess unlabeled ligand.
TSP-1 binding to HRGP: competition with CD36.

“TSP-1: 450 kDa homotrimeric adhesive glycoprotein purified from human platelet releasate; inhibitor of angiogenesis” was tested, and the “blood vessels/mm^2, % of that seen with bFGF” value ([1]; TSP-1 added to bFGF in Matrigel, 10 days) was 14±8%, the “effect on bFGF-induced tube formation by EC” value ([2]; TSP-1 2 nM, bFGF 2 ng/ml, 0.2% serum) was “inhibited” and the “EC migration towards bFGF, percentage of control without added TSP-1” value [3] was “approx. 30%±3%”. The “inhibition of bFGF-induced angiogenesis” value ([4]; CD36 null mice) was “did not inhibit”.

TVSGCC: scrambled peptide control was tested, and the “inhibition of binding of HRGP to immobilized TSP-1” value (shortened to “inhibition of binding of HRGP”) [5] was “not and had no effect”.

For RGDS: control TSP-1 peptide, the “inhibition of binding of HRGP” value [5] was “not and had no effect”.

For “bFGF: Recombinant human basic fibroblast growth factor”, the “angiogenesis in Matrigel plug (histology)” value ([1]; plugs harvested after 10 days, representative images of 4 experiments) was “stimulated angiogenesis”, the “induction of tube formation” value ([2]; agent alone, low serum) was “induced tube formation” and the “Area of Neovascularization (mm^2) ± SE” value ([4]; CD36 −/− mouse, corneal pellet, 5 days) was 2.10 ± 0.14 mm^2. The “Area of Neovascularization (mm^2) ± SE” value ([6]; Wild type mouse, corneal pellet, 5 days) was 2.35 ± 0.10 mm^2 and the “eyes with vigorous outgrowth of blood vessels (angiogenesis)” value ([6]; pellets: bFGF 50 ng, TSP-1 200 ng, HRGP 100 ng, after 5 days) was 13/13.

“cysteine-serine-valine-threonine-cysteine-glycine [CSVTCG]” was tested, and the “binding of radiolabelled HRGP to TSP-1 resolved on SDS-PAGE and blotted” value [7] was “completely abolished”, the “peptide concentration at which inhibition of HRGP binding to TSP-1 reached maximum” value ([5]; concentration-dependent inhibition) was 50 µM and the “inhibition of binding of HRGP” value [5] was “inhibited”. The “inhibition of binding of plasminogen to TSP-1” value [8] was “not inhibited”.

With “CD36 FP93-120: CD36-glutathione-S-transferase (GST) fusion protein shown to bind TSP-1 (YRVRFLAKENVTQDAEDNTVSFLQPNGA; left off: a dimerising Fc or GST)” the “inhibition of 125I-TSP-1 binding to immobilized HRGP” value [9] was “inhibited”.

“GST: glutathione-S-transferase alone, control” was tested, and the “inhibition of 125I-TSP-1 binding to immobilized HRGP” value [9] was “had no effect”.
